Measurements as given in ChEMBL document CHEMBL1201862, “PubChem BioAssay data set” (2004).
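Grown in 96-well plates, cells were treated for 48 hours with each compound at five concentrations. Insufficient inhibition: endpoint recorded as highest concentration tested. At the GI50, growth is halved.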 Active and inactive are the calls of the source. Cut-off read from the data, not from the text of the source: active = GI50 up to about 1.1 µM and inactive = higher.

How the values were obtained:
Assay in all cases: inhibition of tumour cell growth, NCI panel, 48 h
786-0 = tested on: 786-0
CAKI-1 = tested on: CAKI-1
HCT-116 = tested on: HCT-116
HL-60 = tested on: HL-60
Hs-578T = tested on: Hs-578T
KM12 = tested on: KM12
NCI-H226 = tested on: NCI-H226
NCI-H23 = tested on: NCI-H23
NCI/ADR-RES = tested on: NCI/ADR-RES
OVCAR-3 = tested on: OVCAR-3
RPMI-8226 = tested on: RPMI-8226
RXF 393 = tested on: RXF 393
SF-539 = tested on: SF-539
SNB-19 = tested on: SNB-19
T47D = tested on: T47D
U-251 = tested on: U-251
UO-31 = tested on: UO-31
HOP-92 = tested on: HOP-92
SK-MEL-28 = tested on: SK-MEL-28

Row | SMILES | GI50 (786-0) | GI50 (CAKI-1) | GI50 (HCT-116) | GI50 (HL-60) | GI50 (Hs-578T) | GI50 (KM12) | GI50 (NCI-H226) | GI50 (NCI-H23) | GI50 (NCI/ADR-RES) | GI50 (OVCAR-3) | GI50 (RPMI-8226) | GI50 (RXF 393) | GI50 (SF-539) | GI50 (SNB-19) | GI50 (T47D) | GI50 (U-251) | GI50 (UO-31) | GI50 (HOP-92) | GI50 (SK-MEL-28)
1 | COc1ccc(C2=CC(c3ccccc3)n3nnnc3N2)cc1 (stereo not given) | > 100 µM (inactive) | > 100 µM (inactive) | > 100 µM (inactive) | > 100 µM (inactive) | 76.9 µM (inactive) | > 100 µM (inactive) | > 100 µM (inactive) | > 100 µM (inactive) | > 100 µM (inactive) | > 100 µM (inactive) | 7.14 µM (inactive) | > 100 µM (inactive) | > 100 µM (inactive) | > 100 µM (inactive) | 56.9 µM (inactive) | 56 µM (inactive) | > 100 µM (inactive) |  | 
2 | CCOC(=O)CC1CCN(C(=O)c2ccccc2)C2Cc3c([nH]c4ccccc34)C12C[N+](=O)[O-] (stereo not given) |  | 62.2 µM (inactive) |  | 38.7 µM (inactive) | > 100 µM (inactive) | 71 µM (inactive) | > 100 µM (inactive) | 73.6 µM (inactive) | 49.4 µM (inactive) |  |  | 77.1 µM (inactive) | > 100 µM (inactive) |  | 54.3 µM (inactive) | 78.3 µM (inactive) | 48.3 µM (inactive) | 40.6 µM (inactive) | > 100 µM (inactive)
3 | O=[N+]([O-])C(Cl)=C/C(=C(\Cl)SCc1ccccc1)[N+](=O)[O-] | 30.5 µM (inactive) | 18.1 µM (inactive) | 18.4 µM (inactive) | 5.62 µM (inactive) | 53 µM (inactive) | 29.5 µM (inactive) | 26.8 µM (inactive) | 37.5 µM (inactive) | 36.7 µM (inactive) | 15.5 µM (inactive) |  | 10.6 µM (inactive) | 21 µM (inactive) | 38.4 µM (inactive) | 16.9 µM (inactive) | 16.7 µM (inactive) | 20.5 µM (inactive) | 15.4 µM (inactive) | 26.3 µM (inactive)
4 | OCCCCCNc1c2ccccc2nc2ccccc12 | 2.34 µM (inactive) | 2.91 µM (inactive) | 1.45 µM (inactive) | 3.44 µM (inactive) | 3.18 µM (inactive) | 3.13 µM (inactive) |  | 2.02 µM (inactive) | 7.46 µM (inactive) | 3.86 µM (inactive) | 3.44 µM (inactive) | 2.86 µM (inactive) | 2.75 µM (inactive) | 3.03 µM (inactive) | 2.82 µM (inactive) | 3.73 µM (inactive) | 2.38 µM (inactive) |  | 3.85 µM (inactive)
5 | CCc1nnc(-n2c(C)nc3cc(Cl)ccc3c2=O)s1 | 26.5 µM (inactive) | 80.9 µM (inactive) | 26.4 µM (inactive) | 41 µM (inactive) | 28.2 µM (inactive) | 38.5 µM (inactive) | 43.1 µM (inactive) | 31.6 µM (inactive) | 39.6 µM (inactive) | 18.7 µM (inactive) |  | 47.3 µM (inactive) |  | 36.1 µM (inactive) | 27.9 µM (inactive) | 42.7 µM (inactive) | 31.6 µM (inactive) | 27 µM (inactive) | 46.6 µM (inactive)
6 | NC(CCCCP(=O)(O)O)C(=O)O (stereo not given) |  | 14.3 µM (inactive) | > 100 µM (inactive) | > 100 µM (inactive) | > 100 µM (inactive) | > 100 µM (inactive) |  | > 100 µM (inactive) | > 100 µM (inactive) | > 100 µM (inactive) | > 100 µM (inactive) | > 100 µM (inactive) | > 100 µM (inactive) | > 100 µM (inactive) | > 100 µM (inactive) | > 100 µM (inactive) | > 100 µM (inactive) | > 100 µM (inactive) | > 100 µM (inactive)
7 | Cc1cc(-c2nc3cc(F)c(F)cc3s2)ccc1N | > 65.2 µM (inactive) | > 45 µM (inactive) | > 55.6 µM (inactive) | > 41.6 µM (inactive) | 61.1 µM (inactive) | > 69.2 µM (inactive) |  | > 70.6 µM (inactive) | > 59.3 µM (inactive) | > 50.5 µM (inactive) | > 63.4 µM (inactive) | 58.3 µM (inactive) |  | > 59.2 µM (inactive) | < 0.015 µM (active) | > 45.4 µM (inactive) | > 59.4 µM (inactive) | > 100 µM (inactive) | > 100 µM (inactive)
8 | CC(C)c1cc2c(c(O)c1O)[C@@]1(C(=O)O)CCCC(C)(C)[C@@H]1CC2 [CARNOSIC ACID] | 31 µM (inactive) | 27.8 µM (inactive) | 28.7 µM (inactive) |  | 24.1 µM (inactive) | 14 µM (inactive) | 10.4 µM (inactive) | 20 µM (inactive) | 15.6 µM (inactive) | 22.7 µM (inactive) | 7.48 µM (inactive) | 19.6 µM (inactive) | 18.7 µM (inactive) | > 10 µM (inactive) | 18.4 µM (inactive) | 13.8 µM (inactive) | 14.4 µM (inactive) | 6.22 µM (inactive) | 13.2 µM (inactive)
